Data published in ChEMBL document CHEMBL2034937, “Novel 3-Oxazolidinedione-6-aryl-pyridinones as Potent, Selective, and Orally Active EP3 Receptor Antagonists” (ACS Med Chem Lett, 2010).

How the values were obtained:
[1] = Drug metabolism in human liver S9 fraction assessed as NADPH-dependent glutathione conjugate level at 10 uM after 30 mins by LC-MS/MS analysis; assay type: ADME, subcellular; conditions: s9, 0.5 h
[2] = target: T1, Prostaglandin E2 receptor EP3 subtype (Rattus norvegicus, UniProt P34980); assay: Antagonist activity at rat EP3 receptor expressed in human U2OS cells co-expressing Gqi5 assessed as inhibition of PGE2-induced response after 24 hrs by FLIPR assay; assay type: functional, cell-based
T1 sequence (P34980 whole entry): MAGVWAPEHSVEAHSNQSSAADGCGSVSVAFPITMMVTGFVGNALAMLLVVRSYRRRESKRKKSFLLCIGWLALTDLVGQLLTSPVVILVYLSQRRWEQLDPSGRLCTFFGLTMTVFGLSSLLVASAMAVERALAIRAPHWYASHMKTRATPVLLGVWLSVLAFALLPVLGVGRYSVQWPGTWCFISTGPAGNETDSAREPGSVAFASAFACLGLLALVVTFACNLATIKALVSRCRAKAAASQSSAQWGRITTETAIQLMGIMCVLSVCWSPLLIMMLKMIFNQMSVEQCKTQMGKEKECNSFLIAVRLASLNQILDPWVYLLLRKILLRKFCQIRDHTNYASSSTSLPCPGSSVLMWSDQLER

[3] = Drug metabolism in rat liver S9 fraction assessed as NADPH-dependent glutathione conjugate level at 10 uM after 30 mins by LC-MS/MS analysis; assay type: ADME, subcellular; conditions: s9, 0.5 h
[4] = system: Rattus norvegicus; assay: Dose-normalized AUC in Sprague-Dawley rat at 2 mg/kg, po; assay type: ADME, organism-based; parameters: dose 2 mg/kg, route oral; conditions: in vivo
[5] = Half life in Sprague-Dawley rat at 1 mg/kg, iv; assay type: ADME, organism-based; parameters: dose 1 mg/kg, route intravenous; conditions: in vivo
[6] = Clearance in Sprague-Dawley rat at 1 mg/kg, iv and 2 mg/kg, po; assay type: ADME, organism-based; conditions: in vivo
[7] = Drug metabolism in rat liver S9 fraction assessed as glutathione conjugate level at 10 uM after 30 mins by HPLC in absence of NADPH; assay type: ADME, subcellular; conditions: s9, 0.5 h
[8] = target: T2, Prostaglandin E2 receptor EP3 subtype (Homo sapiens, UniProt P43115); assay: Antagonist activity at human EP3c receptor expressed in human U2OS cells assessed as inhibition of PGE2-induced calcium mobilization after 24 hrs by FLIPR assay; assay type: functional, cell-based
T2 sequence (P43115 whole entry): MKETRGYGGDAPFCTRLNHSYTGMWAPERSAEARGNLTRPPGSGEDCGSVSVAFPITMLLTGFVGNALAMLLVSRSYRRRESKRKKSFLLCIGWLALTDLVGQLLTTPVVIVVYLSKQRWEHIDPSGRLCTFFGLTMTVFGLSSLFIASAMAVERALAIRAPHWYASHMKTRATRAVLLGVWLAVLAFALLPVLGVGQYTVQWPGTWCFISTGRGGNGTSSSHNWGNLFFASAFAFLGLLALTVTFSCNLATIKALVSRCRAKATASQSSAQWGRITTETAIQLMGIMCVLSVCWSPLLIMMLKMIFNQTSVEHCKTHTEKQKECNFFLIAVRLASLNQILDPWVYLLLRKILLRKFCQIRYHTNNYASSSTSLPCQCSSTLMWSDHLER

[9] = Oral bioavailability in Sprague-Dawley rat at 2 mg/kg; assay type: ADME, organism-based; conditions: in vivo
[10] = Drug metabolism in human liver S9 fraction assessed as glutathione conjugate level at 10 uM after 30 mins by HPLC in absence of NADPH; assay type: ADME, subcellular; conditions: s9, 0.5 h
[11] = target: T3, Prostaglandin E2 receptor EP1 subtype (Homo sapiens, UniProt P34995); assay: Antagonist activity at EP1 receptor in human U2OS cells expressing Gqi5 assessed as inhibition of PGE2-induced response after 24 hrs by FLIPR assay; assay type: functional, cell-based
T3 sequence (P34995 whole entry): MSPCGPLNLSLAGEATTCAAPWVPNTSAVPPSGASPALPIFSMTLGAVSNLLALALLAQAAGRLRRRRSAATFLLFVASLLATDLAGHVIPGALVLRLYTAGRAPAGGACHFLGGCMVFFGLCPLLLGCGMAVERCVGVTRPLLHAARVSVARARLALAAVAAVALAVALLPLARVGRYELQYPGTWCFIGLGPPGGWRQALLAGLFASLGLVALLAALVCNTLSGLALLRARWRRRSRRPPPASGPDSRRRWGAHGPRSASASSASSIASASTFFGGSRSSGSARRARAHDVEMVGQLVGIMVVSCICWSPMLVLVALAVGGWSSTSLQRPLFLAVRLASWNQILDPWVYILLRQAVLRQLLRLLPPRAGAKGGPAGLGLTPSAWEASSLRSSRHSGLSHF

Row | Drug metabolism [1] | Ki [2] | Drug metabolism [3] | AUC/dose [4] | half-life [5] | clearance [6] | Drug metabolism [7] | Ki [8] | bioavailability [9] | Drug metabolism [10] | Ki [11] | SMILES
1 | Not Active | 3.16 nM | Not Active | 5.6 µg·h/mL/mg/kg | 3.9 h | 2.8 mL/min/kg | Not Active | 3.16 nM | 93% | Not Active |  | CC(C)C1(c2ccc(-c3ccc4cccc(F)c4c3)[nH]c2=O)OC(=O)NC1=O (configuration not stated)
2 |  | 316 nM |  | 0.17 µg·h/mL/mg/kg | 5.1 h | 31 mL/min/kg |  | 200 nM | 32% |  | > 5010 nM | O=C1NC(=O)C(c2ccc(-c3ccc4ccccc4c3)[nH]c2=O)O1 (configuration not stated)
3 | Not Active | 12.6 nM | Not Active | 1.8 µg·h/mL/mg/kg | 2.8 h | 6.3 mL/min/kg | Not Active | 20 nM | 68% | Not Active |  | Cc1ccc(-c2ccc(C3(C(C)C)OC(=O)NC3=O)c(=O)[nH]2)cc1C (configuration not stated)
